From article PMC6416464 (Drug Metabolism Letters, 2018)
pIC50: −log10 of the molar value. Where two headings read alike, the source gives them in different places.

Columns and labels:
[1] = cited from earlier work
rCYP1A2 = target: T1, rCYP1A2 (Homo sapiens, UniProt P05177); assay: Metabolic stability / reaction phenotyping with recombinant human CYP1A2; settings: for % Metabolized at 30 min Incubation with Human Liver Fractions/Enzymes rCYP1A2: 1 µM test compound, 100 pmol/mL
T1 sequence (P05177 1-516): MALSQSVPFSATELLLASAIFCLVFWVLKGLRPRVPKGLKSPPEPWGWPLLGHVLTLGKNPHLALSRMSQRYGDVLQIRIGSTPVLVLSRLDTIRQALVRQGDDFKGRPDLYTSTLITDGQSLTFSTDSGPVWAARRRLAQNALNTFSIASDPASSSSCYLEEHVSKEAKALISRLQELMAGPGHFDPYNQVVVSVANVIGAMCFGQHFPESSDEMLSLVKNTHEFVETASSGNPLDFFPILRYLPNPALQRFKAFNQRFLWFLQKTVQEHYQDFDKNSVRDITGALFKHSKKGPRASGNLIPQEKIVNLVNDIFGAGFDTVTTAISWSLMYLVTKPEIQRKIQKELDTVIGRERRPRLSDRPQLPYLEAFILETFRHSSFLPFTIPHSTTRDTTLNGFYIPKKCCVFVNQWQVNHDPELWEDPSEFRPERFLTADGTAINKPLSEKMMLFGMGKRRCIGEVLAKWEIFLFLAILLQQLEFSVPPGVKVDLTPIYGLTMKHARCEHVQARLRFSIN

rCYP2C19 = rCYP2C19 (Homo sapiens, UniProt P33261); assay: Metabolic stability / reaction phenotyping with recombinant human CYP2C19; settings: for % Metabolized at 30 min Incubation with Human Liver Fractions/Enzymes rCYP2C19: 1 µM test compound, 100 pmol/mL
rCYP2C19, sequence (P33261 whole entry): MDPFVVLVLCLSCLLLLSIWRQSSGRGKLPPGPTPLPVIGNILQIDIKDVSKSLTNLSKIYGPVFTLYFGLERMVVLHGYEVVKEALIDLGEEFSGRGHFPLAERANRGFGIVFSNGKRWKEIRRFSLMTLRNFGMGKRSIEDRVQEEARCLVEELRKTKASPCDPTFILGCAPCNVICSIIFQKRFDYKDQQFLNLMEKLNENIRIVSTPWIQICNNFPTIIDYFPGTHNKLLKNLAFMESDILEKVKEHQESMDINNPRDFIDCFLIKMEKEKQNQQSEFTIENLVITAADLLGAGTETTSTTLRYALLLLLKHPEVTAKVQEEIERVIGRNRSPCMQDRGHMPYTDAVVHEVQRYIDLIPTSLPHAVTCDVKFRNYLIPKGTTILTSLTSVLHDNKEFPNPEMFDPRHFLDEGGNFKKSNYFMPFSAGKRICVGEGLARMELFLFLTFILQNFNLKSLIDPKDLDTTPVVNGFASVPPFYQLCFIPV

rCYP2C8 = target: T2, rCYP2C8 (Homo sapiens, UniProt P10632); assay: Metabolic stability / reaction phenotyping with recombinant human CYP2C8; settings: for % Metabolized at 30 min Incubation with Human Liver Fractions/Enzymes rCYP2C8: 1 µM test compound, 100 pmol/mL
T2 sequence (P10632 1-490): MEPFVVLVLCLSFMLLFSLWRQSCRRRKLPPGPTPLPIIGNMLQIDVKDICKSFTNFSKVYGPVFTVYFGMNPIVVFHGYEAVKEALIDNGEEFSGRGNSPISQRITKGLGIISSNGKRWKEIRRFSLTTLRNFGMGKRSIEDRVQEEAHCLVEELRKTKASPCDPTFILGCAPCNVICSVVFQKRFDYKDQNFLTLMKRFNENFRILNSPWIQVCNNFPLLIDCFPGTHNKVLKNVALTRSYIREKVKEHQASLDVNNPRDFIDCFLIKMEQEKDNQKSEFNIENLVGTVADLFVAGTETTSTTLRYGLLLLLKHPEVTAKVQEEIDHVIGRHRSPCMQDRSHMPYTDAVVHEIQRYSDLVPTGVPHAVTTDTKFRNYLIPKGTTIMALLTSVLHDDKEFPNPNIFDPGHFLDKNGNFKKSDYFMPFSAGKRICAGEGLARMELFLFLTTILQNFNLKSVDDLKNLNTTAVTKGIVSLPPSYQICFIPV

rCYP2D6 = rCYP2D6 (Homo sapiens, UniProt P10635); assay: Metabolic stability / reaction phenotyping with recombinant human CYP2D6; settings: for % Metabolized at 30 min Incubation with Human Liver Fractions/Enzymes rCYP2D6: 1 µM test compound, 100 pmol/mL
rCYP2D6, sequence (P10635 whole entry): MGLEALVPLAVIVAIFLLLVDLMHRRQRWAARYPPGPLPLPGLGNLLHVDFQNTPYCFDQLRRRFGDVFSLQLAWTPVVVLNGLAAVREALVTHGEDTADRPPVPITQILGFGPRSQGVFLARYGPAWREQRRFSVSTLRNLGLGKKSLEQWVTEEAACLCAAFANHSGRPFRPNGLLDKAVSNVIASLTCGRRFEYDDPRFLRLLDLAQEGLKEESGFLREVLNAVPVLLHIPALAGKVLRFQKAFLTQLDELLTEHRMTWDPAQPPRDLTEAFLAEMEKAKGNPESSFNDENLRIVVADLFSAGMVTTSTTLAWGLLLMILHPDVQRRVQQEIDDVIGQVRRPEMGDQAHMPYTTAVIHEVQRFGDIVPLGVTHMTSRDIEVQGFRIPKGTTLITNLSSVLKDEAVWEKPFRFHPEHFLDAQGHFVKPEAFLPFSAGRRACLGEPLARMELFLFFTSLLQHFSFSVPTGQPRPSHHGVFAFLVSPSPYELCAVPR

CYP2C9 = CYP2C9 (Homo sapiens, UniProt P11712); assay: CYP inhibition in human liver microsomes, CYP2C9; settings: HLM; for % Inhibition of Control Activity CYP2C9: NI: No Inhibitin
CYP2C9, sequence (P11712 whole entry): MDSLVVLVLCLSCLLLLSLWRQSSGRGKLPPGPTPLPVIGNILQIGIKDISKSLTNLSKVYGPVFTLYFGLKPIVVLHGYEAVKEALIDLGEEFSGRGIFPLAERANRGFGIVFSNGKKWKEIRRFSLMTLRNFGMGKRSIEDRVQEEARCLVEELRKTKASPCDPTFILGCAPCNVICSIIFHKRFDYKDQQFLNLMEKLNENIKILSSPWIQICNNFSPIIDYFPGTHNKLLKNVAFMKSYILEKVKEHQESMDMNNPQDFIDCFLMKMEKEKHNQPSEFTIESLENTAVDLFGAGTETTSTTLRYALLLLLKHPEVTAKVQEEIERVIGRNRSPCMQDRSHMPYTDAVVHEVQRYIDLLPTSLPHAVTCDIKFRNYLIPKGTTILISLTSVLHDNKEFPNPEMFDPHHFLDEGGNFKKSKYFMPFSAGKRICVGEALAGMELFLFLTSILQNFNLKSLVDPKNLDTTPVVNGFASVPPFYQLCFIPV

CYP2C19 = CYP2C19 (Homo sapiens, UniProt P33261); assay: CYP inhibition in human liver microsomes, CYP2C19; settings: HLM; for % Inhibition of Control Activity CYP2C19: NI: No Inhibitin
CYP2C19, sequence (P33261 whole entry): as the sequence (P33261 whole entry) above

rCYP2C9 = rCYP2C9 (Homo sapiens, UniProt P11712); assay: Metabolic stability / reaction phenotyping with recombinant human CYP2C9; settings: for % Metabolized at 30 min Incubation with Human Liver Fractions/Enzymes rCYP2C9: 1 µM test compound, 100 pmol/mL
rCYP2C9, sequence (P11712 whole entry): as the sequence (P11712 whole entry) above

CYP2C8 = target: T3, CYP2C8 (Homo sapiens, UniProt P10632); assay: CYP inhibition in human liver microsomes, CYP2C8; settings: for inhibition at 2 µM / inhibition at 10 µM: human, human liver microsomes, pH 7.4, probe paclitaxel; for % Inhibition of Control Activity CYP2C8: NI: No Inhibitin
T3 sequence (P10632 1-490): T2 sequence (P10632 1-490)

[2] = Metabolic stability, incubation with human liver microsomes; settings: 1 µM test compound, 0.5 mg/mL protein
[3] = Metabolic stability, incubation with human liver cytosol; assay type: in vitro ADME; settings: 1 µM test compound, 1 mg/mL protein
[4] = pulmonary tuberculosis patients; cited from earlier work
[5] = cited from earlier work; remark: listed apart in the source
rCYP3A4 = rCYP3A4 (Homo sapiens, UniProt P08684)
rCYP3A4, sequence (P08684 whole entry): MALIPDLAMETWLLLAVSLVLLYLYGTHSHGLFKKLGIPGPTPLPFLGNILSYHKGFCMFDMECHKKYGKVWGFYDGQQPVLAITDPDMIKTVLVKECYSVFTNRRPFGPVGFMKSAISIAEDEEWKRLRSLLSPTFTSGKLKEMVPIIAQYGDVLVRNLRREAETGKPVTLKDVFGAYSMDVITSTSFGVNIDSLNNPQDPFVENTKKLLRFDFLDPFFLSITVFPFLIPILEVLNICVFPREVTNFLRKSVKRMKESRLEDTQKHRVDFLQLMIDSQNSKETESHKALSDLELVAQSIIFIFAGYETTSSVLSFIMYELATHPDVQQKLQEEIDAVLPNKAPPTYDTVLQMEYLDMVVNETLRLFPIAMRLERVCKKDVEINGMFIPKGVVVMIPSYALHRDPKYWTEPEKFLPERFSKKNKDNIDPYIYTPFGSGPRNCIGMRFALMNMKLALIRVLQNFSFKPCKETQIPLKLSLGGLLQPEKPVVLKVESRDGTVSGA

CYP1A2 = target: T4, CYP1A2 (Homo sapiens, UniProt P05177); assay: CYP inhibition in human liver microsomes, CYP1A2; settings: HLM; for % Inhibition of Control Activity CYP1A2: NI: No Inhibitin
T4 sequence (P05177 1-516): T1 sequence (P05177 1-516)

CYP2D6 = CYP2D6 (Homo sapiens, UniProt P10635); assay: CYP inhibition in human liver microsomes, CYP2D6; settings: HLM, NI: No Inhibitin
CYP2D6, sequence (P10635 whole entry): as the sequence (P10635 whole entry) above

CYP3A4 [6] = target: T5, CYP3A4 (Homo sapiens, UniProt P08684); settings: microsomes
T5 sequence (P08684 2-503): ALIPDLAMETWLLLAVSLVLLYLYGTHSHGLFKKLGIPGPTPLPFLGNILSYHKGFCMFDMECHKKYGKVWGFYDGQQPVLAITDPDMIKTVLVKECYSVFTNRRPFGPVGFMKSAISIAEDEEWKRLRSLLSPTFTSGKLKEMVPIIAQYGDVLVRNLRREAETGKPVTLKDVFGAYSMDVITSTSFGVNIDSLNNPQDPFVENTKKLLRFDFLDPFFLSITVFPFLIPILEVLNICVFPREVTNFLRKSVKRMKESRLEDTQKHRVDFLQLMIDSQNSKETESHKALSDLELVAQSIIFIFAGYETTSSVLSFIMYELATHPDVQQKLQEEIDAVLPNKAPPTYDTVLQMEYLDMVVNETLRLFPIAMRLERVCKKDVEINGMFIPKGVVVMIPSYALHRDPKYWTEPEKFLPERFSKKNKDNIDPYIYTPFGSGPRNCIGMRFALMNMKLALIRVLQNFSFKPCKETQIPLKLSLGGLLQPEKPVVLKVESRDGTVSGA

CYP3A4 [7] = target: T5, CYP3A4; assay: in vitro; settings: microsomes, pH 7.4, % Inhibition of Control Activity CYP3A4 (substrate, testosterone)
CYP3A4 [8] = target: T5, CYP3A4; assay: in vitro; settings: microsomes, pH 7.4
[9] = human, recombinant human CYP1A2, 1 µM, pH 7.4
[10] = human, recombinant human CYP2C19, 1 µM, pH 7.4
[11] = human, recombinant human CYP2C8, 1 µM, pH 7.4
[12] = human, recombinant human CYP2D6, 1 µM, pH 7.4
[13] = human, recombinant human CYP2C9, 1 µM, pH 7.4

## CCCSc1ccc2nc(NC(=O)OC)[nH]c2c1 [Albendazole, albendazole, reference compound]
[1]; with CYP3A4 inhibitor grapefruit juice
  increase of exposure: 3.2 fold
rCYP1A2
  % Metabolized at 30 min Incubation with Human Liver Fractions/Enzymes rCYP1A2: 98.92%
rCYP1A2; [9]
  % Contribution of CYP Enzymes (fmCYP) in Metabolism, CYP1A2: 74.79%
  Predicted Microsomal Clint, CYP1A2: 78.510 µL/min/mg Protein
  rCYP Clint, CYP1A2: 1.510 µL/min/pmol
rCYP2C19
  % Metabolized at 30 min Incubation with Human Liver Fractions/Enzymes rCYP2C19: 95.76%
rCYP2C19; [10]
  % Contribution of CYP Enzymes (fmCYP) in Metabolism, CYP2C19: 19.06%
  Predicted Microsomal Clint, CYP2C19: 20.011 µL/min/mg Protein
  rCYP Clint, CYP2C19: 1.053 µL/min/pmol
rCYP2C8
  % Metabolized at 30 min Incubation with Human Liver Fractions/Enzymes rCYP2C8: 2.43%
rCYP2C8; [11]
  % Contribution of CYP Enzymes (fmCYP) in Metabolism, CYP2C8: 0.50%
  Predicted Microsomal Clint, CYP2C8: 0.525 µL/min/mg Protein
  rCYP Clint, CYP2C8: 0.008 µL/min/pmol
rCYP2D6
  % Metabolized at 30 min Incubation with Human Liver Fractions/Enzymes rCYP2D6: 64.92%
rCYP2D6; [12]
  % Contribution of CYP Enzymes (fmCYP) in Metabolism, CYP2D6: 3.33%
  Predicted Microsomal Clint, CYP2D6: 3.491 µL/min/mg Protein
  rCYP Clint, CYP2D6: 0.349 µL/min/pmol
CYP2C9; inhibitor 10 µM, 10 µM
  % Inhibition of Control Activity CYP2C9: 12.40%
CYP2C19; inhibitor 10 µM, 10 µM
  % Inhibition of Control Activity CYP2C19: 4.20%
rCYP2C9
  % Metabolized at 30 min Incubation with Human Liver Fractions/Enzymes rCYP2C9: 5.96%
rCYP2C9; [13]
  % Contribution of CYP Enzymes (fmCYP) in Metabolism, CYP2C9: 1.87%
  Predicted Microsomal Clint, CYP2C9: 1.966 µL/min/mg Protein
  rCYP Clint, CYP2C9: 0.020 µL/min/pmol
CYP2C8
  inhibition at 2 µM: < 0%
  inhibition at 10 µM: < 0%
[2]
  % Metabolized at 30 min Incubation with Human Liver Fractions/Enzymes HLM: 50.06%
[3]
  % Metabolized at 30 min Incubation with Human Liver Fractions/Enzymes Cytosol: 0.00%

## CC(=O)NC[C@H]1CN(c2ccc(N3CC[S+]([O-])CC3)c(F)c2)C(=O)O1 [sutezolid sulfoxide]
[4]
  metabolite to parent (sutezolid sulfoxide/ sutezolid) median concentration ratio: 7.1

## triclabendazole sulfoxide
rCYP1A2
  Predicted Microsomal Clint, CYP1A2: 3.968 µL/min/mg Protein
  % Metabolized at 30 min Incubation with Human Liver Fractions/Enzymes rCYP1A2: 20.46%
rCYP1A2; human, recombinant enzyme
  rCYP Clint, CYP1A2: 0.076 µL/min/pmol
rCYP1A2; recombinant enzyme
  % Contribution of CYP Enzymes (fmCYP) in Metabolism, CYP1A2: 5.73%
[5]; human patients at therapeutic doses of triclabendazole
  Cmax: 38.6 µM
[5]; humans
  half-life: 11 to 12 h
[5]; humans, standard dose of triclabendazole of 10 mg/kg
  peak concentration: 38.6 µM
rCYP3A4
  Predicted Microsomal Clint, CYP3A4: 1.626 µL/min/mg Protein
rCYP3A4; 1 µM test compound, 100 pmol/mL, 30 min
  % Metabolized at 30 min Incubation with Human Liver Fractions/Enzymes rCYP3A4: 4.30%
rCYP3A4; human, recombinant enzyme
  rCYP Clint, CYP3A4: 0.015 µL/min/pmol
rCYP3A4; recombinant enzyme
  % Contribution of CYP Enzymes (fmCYP) in Metabolism, CYP3A4: 2.35%
rCYP2C19
  Predicted Microsomal Clint, CYP2C19: 6.442 µL/min/mg Protein
  % Metabolized at 30 min Incubation with Human Liver Fractions/Enzymes rCYP2C19: 63.84%
rCYP2C19; human, recombinant enzyme
  rCYP Clint, CYP2C19: 0.339 µL/min/pmol
rCYP2C19; recombinant enzyme
  % Contribution of CYP Enzymes (fmCYP) in Metabolism, CYP2C19: 9.31%
rCYP2C8
  % Metabolized at 30 min Incubation with Human Liver Fractions/Enzymes rCYP2C8: 0.00%
CYP1A2; inhibitor 2 µM
  % Inhibition of Control Activity CYP1A2: 39.42%
CYP1A2; inhibitor 10 µM
  % Inhibition of Control Activity CYP1A2: 69.42%
CYP1A2; read-out: IC50 CYP 1A2
  pIC50: 5.38
rCYP2D6
  Predicted Microsomal Clint, CYP2D6: 0.125 µL/min/mg Protein
  % Metabolized at 30 min Incubation with Human Liver Fractions/Enzymes rCYP2D6: 3.68%
rCYP2D6; human, recombinant enzyme
  rCYP Clint, CYP2D6: 0.012 µL/min/pmol
rCYP2D6; recombinant enzyme
  % Contribution of CYP Enzymes (fmCYP) in Metabolism, CYP2D6: 0.18%
CYP2C9; inhibitor 2 µM
  % Inhibition of Control Activity CYP2C9: 49.60%
CYP2C9; inhibitor 10 µM
  % Inhibition of Control Activity CYP2C9: 86.62%
CYP2C9; read-out: IC50 CYP 2C9
  pIC50: 5.71
CYP2C19; inhibitor 2 µM
  % Inhibition of Control Activity CYP2C19: 84.33%
CYP2C19; inhibitor 10 µM
  % Inhibition of Control Activity CYP2C19: 88.87%
CYP2C19; read-out: IC50 CYP 2C19
  pIC50: 6.66
rCYP2C9
  Predicted Microsomal Clint, CYP2C9: 57.057 µL/min/mg Protein
  % Metabolized at 30 min Incubation with Human Liver Fractions/Enzymes rCYP2C9: 83.19%
rCYP2C9; human, recombinant enzyme
  rCYP Clint, CYP2C9: 0.594 µL/min/pmol
rCYP2C9; recombinant enzyme
  % Contribution of CYP Enzymes (fmCYP) in Metabolism, CYP2C9: 82.43%
CYP2D6; inhibitor 2 µM
  % Inhibition of Control Activity CYP2D6: 1.63%
CYP2D6; inhibitor 10 µM
  % Inhibition of Control Activity CYP2D6: 3.13%
CYP2C8; inhibitor 2 µM, HLM
  % Inhibition of Control Activity CYP2C8: 11.20%
CYP2C8; inhibitor 10 µM, HLM
  % Inhibition of Control Activity CYP2C8: 53.67%
CYP2C8; read-out: IC50 CYP 2C8, HLM
  pIC50: 5.05
CYP3A4 [6]; 2 µM
  % Inhibition of Control Activity CYP3A4 (substrate, testosterone): 0.18%
CYP3A4 [6]; 10 µM
  % Inhibition of Control Activity CYP3A4 (substrate, testosterone): 14.43%
[2]
  % Metabolized at 30 min Incubation with Human Liver Fractions/Enzymes HLM: 18.08%
[3]
  % Metabolized at 30 min Incubation with Human Liver Fractions/Enzymes Cytosol: 0.00%

## CCC[S+]([O-])c1ccc2[nH]c(NC(=O)OC)nc2c1 (stereo not drawn) [Albendazole sulfoxide, albendazole sulfoxide]
[1]; with transport inhibitors such as verapamil, quinidine and ivermectin
  increase of AUC: > 50%
CYP1A2; inhibitor 10 µM, 10 µM
  % Inhibition of Control Activity CYP1A2: 22.20%
CYP2C9; inhibitor 10 µM, 10 µM
  % Inhibition of Control Activity CYP2C9: 9.49%
CYP3A4 [7]
  inhibition at 2 µM: 2.48%
CYP2C8
  inhibition at 2 µM: < 0%
  inhibition at 10 µM: < 0%
CYP3A4 [6]; human, 10 µM, pH 7.4
  % Inhibition of Control Activity CYP3A4 (substrate, testosterone): 4.82%
CYP3A4 [8]
  inhibition at 2 µM: < 0%
  inhibition at 10 µM: < 0%
[2]
  % Metabolized at 30 min Incubation with Human Liver Fractions/Enzymes HLM: 4.23%
[3]
  % Metabolized at 30 min Incubation with Human Liver Fractions/Enzymes Cytosol: 0.20%
